Source: ChEMBL document CHEMBL4118097, “Selective Inhibitors of Dual Leucine Zipper Kinase (DLK, MAP3K12) with Activity in a Model of Alzheimer's Disease” (J Med Chem, 2017)

Columns and labels:
[1] = biological target: T1, Mitogen-activated protein kinase kinase kinase 12 (Homo sapiens, UniProt Q12852); assay: Inhibition of doxycycline inducible human DLK transfected in HEK293 cells assessed as JNK phosphorylation after […] by Hoechst-33342 staining-based assay; format: cell-based
T1 sequence (Q12852 whole entry): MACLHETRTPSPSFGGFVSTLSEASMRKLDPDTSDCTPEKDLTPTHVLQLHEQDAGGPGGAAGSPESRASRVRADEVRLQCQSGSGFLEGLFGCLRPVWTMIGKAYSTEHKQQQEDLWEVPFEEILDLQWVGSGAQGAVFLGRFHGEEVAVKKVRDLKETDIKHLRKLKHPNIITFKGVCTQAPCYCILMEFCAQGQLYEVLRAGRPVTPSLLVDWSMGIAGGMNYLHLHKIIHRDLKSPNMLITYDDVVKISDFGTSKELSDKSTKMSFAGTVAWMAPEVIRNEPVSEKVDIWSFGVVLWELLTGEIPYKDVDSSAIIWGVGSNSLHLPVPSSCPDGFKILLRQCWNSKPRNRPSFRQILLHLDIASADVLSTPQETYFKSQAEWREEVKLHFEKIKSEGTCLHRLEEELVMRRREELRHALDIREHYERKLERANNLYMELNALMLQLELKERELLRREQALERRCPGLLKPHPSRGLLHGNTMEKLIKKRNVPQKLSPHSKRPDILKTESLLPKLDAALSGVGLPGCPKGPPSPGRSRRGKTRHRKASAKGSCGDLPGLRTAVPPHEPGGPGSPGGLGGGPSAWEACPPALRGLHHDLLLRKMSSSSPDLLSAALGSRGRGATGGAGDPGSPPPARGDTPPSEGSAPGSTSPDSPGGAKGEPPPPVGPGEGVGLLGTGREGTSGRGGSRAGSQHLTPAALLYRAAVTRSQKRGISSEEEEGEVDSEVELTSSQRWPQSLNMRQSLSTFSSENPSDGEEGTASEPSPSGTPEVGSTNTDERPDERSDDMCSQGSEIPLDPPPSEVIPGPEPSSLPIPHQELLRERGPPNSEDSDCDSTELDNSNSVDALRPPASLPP

[2] = biological target: T1, Mitogen-activated protein kinase kinase kinase 12; assay: Binding affinity to N-terminally GST-tagged wild type human DLK (1 to 520 residues) expressed in sf21 insect cells using N-terminally His-tagged MKK4 K131M as substrate after 60 mins in presence of ATP by TR-FRET assay
MDR1 (P-gp), human [3] = assay: Permeability from apical side to basolateral side in MDCK1 cells harboring human MDR1; format: ADME, cell-based, Canis lupus familiaris; settings: dog, MDCK-MDR1; read-out: permeability
MDR1 (P-gp), human [4] = assay: Efflux ratio of permeability from basolateral to apical side over apical to basolateral side in MDCK cells harboring human MDR1; format: ADME, cell-based, Canis lupus familiaris; settings: dog

| Compound | IC50 [1] | Ki [2] | Papp A→B (MDR1 (P-gp), human [3]) | efflux ratio (MDR1 (P-gp), human [4]) |
| --- | --- | --- | --- | --- |
| Cn1nc(-c2cnc(N)c(OC(F)(F)F)c2)cc1[C@H]1[C@@H]2CN(C3COC3)C[C@@H]21 | 1300 nM | 67 nM | – | – |
| CC(O)CN1C[C@@H]2[C@H](C1)[C@H]2c1cc(-c2cnc(N)c(C(F)(F)F)c2)nn1C(C)C (some centres undefined) | 208 nM | 4 nM | – | – |
| CC(C)n1nc(-c2cnc(N)c(C(F)(F)F)c2)cc1[C@H]1[C@@H]2CN(CC(F)F)C[C@@H]21 | 611 nM | – | 7.9 ×10⁻⁶ cm/s | 0.3 |
| Nc1ncc(-c2cc([C@H]3[C@@H]4CN(C5COC5)C[C@@H]43)n(CC(F)(F)F)n2)cc1C(F)(F)F | 180 nM | 16 nM | – | – |
| Nc1ncc(-c2cc([C@H]3[C@@H]4CN(C5COC5)C[C@@H]43)n(CC3CCCC3)n2)cc1C(F)(F)F | 202 nM | 9 nM | – | – |
| CC(C)(O)Cn1nc(-c2cnc(N)c(C(F)(F)F)c2)cc1[C@H]1[C@@H]2CN(C3COC3)C[C@@H]21 | 829 nM | 23 nM | – | – |
| Cn1nc(-c2cnc(N)c(C(F)(F)F)c2)cc1[C@H]1[C@@H]2CN(C3COC3)C[C@@H]21 | 1800 nM | 82 nM | – | – |
| Nc1ncc(-c2cc([C@H]3[C@@H]4CN(C5COC5)C[C@@H]43)n(CC3CC3)n2)cc1OC(F)(F)F | 304 nM | 3 nM | – | – |
| CC(=O)N1C[C@@H]2[C@H](C1)[C@H]2c1cc(-c2cnc(N)c(C(F)(F)F)c2)nn1C(C)C | 302 nM | 6 nM | – | – |
| CCn1nc(-c2cnc(N)c(C(F)(F)F)c2)cc1[C@H]1[C@@H]2CN(C3COC3)C[C@@H]21 | 406 nM | 3 nM | – | – |
| COCCN1C[C@@H]2[C@H](C1)[C@H]2c1cc(-c2cnc(N)c(C(F)(F)F)c2)nn1C(C)C | 265 nM | 9 nM | – | – |

Next, values leading:

| IC50 [1] | Ki [2] | Papp A→B (MDR1 (P-gp), human [3]) | efflux ratio (MDR1 (P-gp), human [4]) | Compound |
| --- | --- | --- | --- | --- |
| 1700 nM | – | – | – | CC(C)n1nc(-c2cnc(N)c(Cl)c2)cc1C1CCN(C2COC2)CC1 |
| 1200 nM | – | – | – | CC(C)n1nc(-c2cnc(N)c(C(F)F)c2)cc1[C@H]1[C@@H]2CN(C3COC3)C[C@@H]21 |
| 328 nM | – | – | – | CC(C)n1nc(-c2cnc(N)c(OC(F)F)c2)cc1[C@H]1[C@@H]2CN(C3COC3)C[C@@H]21 |
| 99 nM | 3 nM | – | – | CC(C)Cn1nc(-c2cnc(N)c(C(F)(F)F)c2)cc1[C@H]1[C@@H]2CN(C3COC3)C[C@@H]21 |
| 1900 nM | – | – | – | CC(C)n1nc(-c2cnc(N)c(C(F)(F)F)c2)cc1C1CCN(C2COC2)CC1 |
| 873 nM | 7 nM | – | – | COc1cc(-c2cc([C@H]3[C@@H]4CN(C5COC5)C[C@@H]43)n(C(C)C)n2)cnc1N |
| 574 nM | – | – | – | CC(C)n1nc(-c2cnc3[nH]cc(Cl)c3c2)cc1C1CCN(C2COC2)CC1 |
| 485 nM | – | – | – | CC(C)n1nc(-c2cnc3[nH]cc(C(F)(F)F)c3c2)cc1C1CCN(C2COC2)CC1 |
| 274 nM | 5 nM | – | – | CC(C)n1nc(-c2cnc(N)c(C(F)(F)F)c2)cc1[C@H]1[C@@H]2CN(CC3COC3)C[C@@H]21 |
| 2800 nM | – | – | – | CC(C)n1nc(-c2cnc3[nH]cc(F)c3c2)cc1C1CCN(C2COC2)CC1 |
| – | > 1600 nM | – | – | Cc1cc(-c2cc(C3CCN(C4COC4)CC3)n(C(C)C)n2)cnc1N |
| 303 nM | 4 nM | – | – | Cc1c[nH]c2ncc(-c3cc(C4CCN(C5COC5)CC4)n(C(C)C)n3)cc12 |
